Data published in US8435929B2, “1-aminocyclopropane carboxylic acid as a fruit thinner” (Valent BioSciences Corporation, priority 2009, dated 2013).

Tests used:
Babygold #5 peaches = assay: Scaffold gummosis rating of Babygold #5 peaches; format: in vivo, peach; conditions: in vivo
Description: Gummosis is a physiological stress response in which sap oozes from fractures in tree bark and often leads to tree decline. Use of 2-chloroethylphosphonic acid as a stone fruit thinning has been limited because it can stimulate severe incidences of gummosis of stone fruit.

Pink Lady apples = assay: Field thinning study, fruit set of Pink Lady apples; format: in vivo, apple; conditions: for Number of fruit per limb / Total number of fruit: 5 days after full bloom
Chardonnay grapes = assay: Thinning study on Chardonnay grapes (cluster weight, berry weight, berries per rachis, rachis length); format: in vivo, grape; conditions: application at bloom
Description: Application of ACC on grapes during bloom reduced the cluster weight and number of berries/cm rachis (Table 15). However, ACC applications produce the highly undesirable effect of reducing the rachis length and cluster size. Similar results have been seen in trials on other grape varieties in Michigan, California, and Australia.

O'Henry peaches = assay: Field thinning study, fruit set, fruit weight and crop safety of O'Henry peaches
PF-27 peaches = assay: Field thinning study, ACC and ABA, fruit set of PF-27 peaches; format: in vivo, peach; conditions: application at shuck split
Description: Application of ACC alone at shuck split reduced fruit set in a dose dependent manner (Table 10).

Summer Rich peaches = assay: Field thinning study, fruit set, fruit weight and crop safety of Summer Rich peaches

NC1(C(=O)O)CC1 [ACC, 1-aminocyclopropane carboxylic acid]
Gummosis (in words) (Babygold #5 peaches): little gummosis | Number of fruit per limb (Pink Lady apples; 100 ppm): 64 | Total number of fruit (Pink Lady apples; 100 ppm): 175 | Number of fruit per limb (Pink Lady apples; 300 ppm): 62 | Total number of fruit (Pink Lady apples; 300 ppm): 165 | Number of fruit per limb (Pink Lady apples; 500 ppm): 61 | Total number of fruit (Pink Lady apples; 500 ppm): 169 | Number of fruit per limb (Pink Lady apples; 1000 ppm): 58 | Total number of fruit (Pink Lady apples; 1000 ppm): 124 | Crop load (in words) (Pink Lady apples; highest rate tested (1000 ppm), early application (full bloom)): reduced crop load slightly | Berries per cm rachis (Chardonnay grapes; 100 ppm): 3.1 | Berry weight (Chardonnay grapes; 100 ppm): 1.2 g | Cluster weight (Chardonnay grapes; 100 ppm): 128 g | Rachis length (cm) (Chardonnay grapes; 100 ppm): 34 cm | Berries per cm rachis (Chardonnay grapes; 300 ppm): 2.9 | Berry weight (Chardonnay grapes; 300 ppm): 1.2 g | Cluster weight (Chardonnay grapes; 300 ppm): 78 g | Rachis length (cm) (Chardonnay grapes; 300 ppm): 23 cm | Berries per cm rachis (Chardonnay grapes; 1000 ppm): 1.6 | Berry weight (Chardonnay grapes; 1000 ppm): 1.1 g | Cluster weight (Chardonnay grapes; 1000 ppm): 24 g | Rachis length (cm) (Chardonnay grapes; 1000 ppm): 14 cm | Crop load (percent) of treated trees compared to the untreated control (O'Henry peaches; 500 ppm at 15 mm fruit stage): 38% | Crop safety on vegetation (0-4 scale) (O'Henry peaches; 500 ppm at 15 mm fruit stage): 0.7 0-4 scale | Fruit weight at maturity (O'Henry peaches; 500 ppm at 15 mm fruit stage): 185 g | Percent fruit set (O'Henry peaches; 500 ppm at 15 mm fruit stage): 16% | Crop load (percent) of treated trees compared to the untreated control (O'Henry peaches; 500 ppm at petal fall): 79% | Crop safety on vegetation (0-4 scale) (O'Henry peaches; 500 ppm at petal fall): 0 0-4 scale | Fruit weight at maturity (O'Henry peaches; 500 ppm at petal fall): 200 g | Percent fruit set (O'Henry peaches; 500 ppm at petal fall): 23% | Crop load (percent) of treated trees compared to the untreated control (O'Henry peaches; 750 ppm at 15 mm fruit stage): 21% | Crop safety on vegetation (0-4 scale) (O'Henry peaches; 750 ppm at 15 mm fruit stage): 2.1 0-4 scale | Fruit weight at maturity (O'Henry peaches; 750 ppm at 15 mm fruit stage): 235 g | Percent fruit set (O'Henry peaches; 750 ppm at 15 mm fruit stage): 6% | Crop load (percent) of treated trees compared to the untreated control (O'Henry peaches; 750 ppm at petal fall): 55% | Crop safety on vegetation (0-4 scale) (O'Henry peaches; 750 ppm at petal fall): 0.5 0-4 scale | Fruit weight at maturity (O'Henry peaches; 750 ppm at petal fall): 205 g | Percent fruit set (O'Henry peaches; 750 ppm at petal fall): 11% | Crop load (percent) of treated trees compared to the untreated control (PF-27 peaches; 100 ppm): 81% | Percent fruit set (PF-27 peaches; 100 ppm): 70% | Crop load (percent) of treated trees compared to the untreated control (PF-27 peaches; 300 ppm): 67% | Percent fruit set (PF-27 peaches; 300 ppm): 58% | Crop load (percent) of treated trees compared to the untreated control (PF-27 peaches; 1000 ppm): 15% | Percent fruit set (PF-27 peaches; 1000 ppm): 13% | Crop load (percent) of treated trees compared to the untreated control (Summer Rich peaches; 500 ppm at 15 mm fruit stage): 34% | Crop safety on vegetation (0-4 scale) (Summer Rich peaches; 500 ppm at 15 mm fruit stage): 3.0 0-4 scale | Fruit weight at maturity (Summer Rich peaches; 500 ppm at 15 mm fruit stage): 144 g | Percent fruit set (Summer Rich peaches; 500 ppm at 15 mm fruit stage): 24% | Crop load (percent) of treated trees compared to the untreated control (Summer Rich peaches; 500 ppm at petal fall): 55% | Crop safety on vegetation (0-4 scale) (Summer Rich peaches; 500 ppm at petal fall): 0.5 0-4 scale | Fruit weight at maturity (Summer Rich peaches; 500 ppm at petal fall): 140 g | Percent fruit set (Summer Rich peaches; 500 ppm at petal fall): 39% | Crop load (percent) of treated trees compared to the untreated control (Summer Rich peaches; 750 ppm at 15 mm fruit stage): 24% | Crop safety on vegetation (0-4 scale) (Summer Rich peaches; 750 ppm at 15 mm fruit stage): 3.5 0-4 scale | Fruit weight at maturity (Summer Rich peaches; 750 ppm at 15 mm fruit stage): 169 g | Percent fruit set (Summer Rich peaches; 750 ppm at 15 mm fruit stage): 17% | Crop load (percent) of treated trees compared to the untreated control (Summer Rich peaches; 750 ppm at petal fall): 39% | Crop safety on vegetation (0-4 scale) (Summer Rich peaches; 750 ppm at petal fall): 0.8 0-4 scale | Fruit weight at maturity (Summer Rich peaches; 750 ppm at petal fall): 151 g | Percent fruit set (Summer Rich peaches; 750 ppm at petal fall): 28% | Leaf yellowing and leaf loss (Summer Rich peaches; application at petal fall, stated for both varieties (Summer Rich and O'Henry)): minimized leaf yellowing and leaf loss
